# Assay results published in PubChem BioAssay AID624355 (The Scripps Research Institute Molecular Screening Center, 2012).
# Activity calls are given as the source filed them.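 How the source made its calls: active means inhibition of at least 50% in a panel; inactive means the rest.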
# Legend:
# Assay in all cases: GPCR and transporter radioligand displacement panel – cell-based, radioligand binding, single concentration, selectivity assay for STAT3/NF-kB dual inhibitor project, profiling panel (AID 624355)
# Glutamate, NMDA, Glycine = conditions: Ricerca radioligand binding panel, receptors/transporters, Glycine site, at 10 µM, stronger effect = higher value
# [1] = system: Glutamate, NMDA, Phencyclidine; conditions: Ricerca radioligand binding panel, receptors/transporters, Phencyclidine site, at 10 µM, stronger effect = higher value
# Histamine H1 = conditions: Ricerca radioligand binding panel, receptors/transporters, at 10 µM, stronger effect = higher value
# Histamine H2 = conditions: Ricerca radioligand binding panel, receptors/transporters, at 10 µM, stronger effect = higher value
# Histamine H3 = conditions: Ricerca radioligand binding panel, receptors/transporters, at 10 µM, stronger effect = higher value
# Imidazoline I2, Central = conditions: Ricerca radioligand binding panel, receptors/transporters, at 10 µM, stronger effect = higher value
# Interleukin IL-1 = conditions: Ricerca radioligand binding panel, receptors/transporters, at 10 µM, stronger effect = higher value
# [2] = biological target: Kappa-type opioid receptor (Homo sapiens) (UniProt P41145); conditions: Ricerca radioligand binding panel, receptors/transporters; Opiate (OP2, KOP); at 10 µM; stronger effect = higher value
# Sequence of Kappa-type opioid receptor (Homo sapiens) (P41145 whole entry, looked up): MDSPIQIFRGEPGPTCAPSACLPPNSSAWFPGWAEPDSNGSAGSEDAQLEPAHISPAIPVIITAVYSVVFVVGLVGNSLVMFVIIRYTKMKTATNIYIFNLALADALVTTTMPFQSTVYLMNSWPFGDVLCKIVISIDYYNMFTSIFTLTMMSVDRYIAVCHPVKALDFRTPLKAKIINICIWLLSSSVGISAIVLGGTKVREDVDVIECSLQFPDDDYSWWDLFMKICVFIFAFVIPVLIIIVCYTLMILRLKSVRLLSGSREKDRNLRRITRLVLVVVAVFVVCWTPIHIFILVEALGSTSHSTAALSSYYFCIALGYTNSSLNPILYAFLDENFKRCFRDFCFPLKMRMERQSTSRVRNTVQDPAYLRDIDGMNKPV
# [3] = system: Leukotriene, Cysteinyl CysLT1; conditions: Ricerca radioligand binding panel, receptors/transporters, at 10 µM, stronger effect = higher value
# Melatonin MT1 = conditions: Ricerca radioligand binding panel, receptors/transporters, at 10 µM, stronger effect = higher value
# [4] = biological target: Muscarinic acetylcholine receptor M1 (Homo sapiens) (UniProt P11229); conditions: Ricerca radioligand binding panel, receptors/transporters, at 10 µM, stronger effect = higher value
# Sequence of Muscarinic acetylcholine receptor M1 (Homo sapiens) (P11229 whole entry, looked up): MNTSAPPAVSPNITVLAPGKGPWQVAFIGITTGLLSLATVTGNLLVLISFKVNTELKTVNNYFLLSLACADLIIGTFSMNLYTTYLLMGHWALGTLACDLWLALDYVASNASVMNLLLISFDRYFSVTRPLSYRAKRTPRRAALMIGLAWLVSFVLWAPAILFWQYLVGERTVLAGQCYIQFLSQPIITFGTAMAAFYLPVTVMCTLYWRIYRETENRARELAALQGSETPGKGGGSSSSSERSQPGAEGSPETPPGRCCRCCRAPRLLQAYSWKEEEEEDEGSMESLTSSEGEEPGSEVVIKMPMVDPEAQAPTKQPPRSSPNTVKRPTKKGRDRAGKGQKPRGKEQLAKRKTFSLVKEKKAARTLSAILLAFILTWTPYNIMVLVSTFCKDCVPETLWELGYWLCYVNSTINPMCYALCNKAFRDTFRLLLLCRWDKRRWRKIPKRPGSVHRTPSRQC
# [5] = biological target: Muscarinic acetylcholine receptor M2 (Homo sapiens) (UniProt P08172); conditions: Ricerca radioligand binding panel, receptors/transporters, at 10 µM, stronger effect = higher value
# Sequence of Muscarinic acetylcholine receptor M2 (Homo sapiens) (P08172 whole entry, looked up): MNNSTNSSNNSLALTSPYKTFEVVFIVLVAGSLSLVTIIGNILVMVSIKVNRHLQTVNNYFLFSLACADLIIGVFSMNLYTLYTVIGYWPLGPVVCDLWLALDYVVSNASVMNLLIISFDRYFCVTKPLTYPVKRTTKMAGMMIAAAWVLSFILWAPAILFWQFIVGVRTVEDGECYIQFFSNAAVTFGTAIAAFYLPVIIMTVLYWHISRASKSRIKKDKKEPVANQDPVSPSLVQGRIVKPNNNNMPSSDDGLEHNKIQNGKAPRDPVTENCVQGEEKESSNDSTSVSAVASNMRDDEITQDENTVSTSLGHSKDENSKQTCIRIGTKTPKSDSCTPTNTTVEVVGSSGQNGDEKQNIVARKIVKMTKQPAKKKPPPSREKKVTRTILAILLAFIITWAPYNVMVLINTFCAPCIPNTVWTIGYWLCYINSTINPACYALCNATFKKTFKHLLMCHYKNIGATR
# [6] = biological target: Muscarinic acetylcholine receptor M3 (Homo sapiens) (UniProt P20309); conditions: Ricerca radioligand binding panel, receptors/transporters, at 10 µM, stronger effect = higher value
# Sequence of Muscarinic acetylcholine receptor M3 (Homo sapiens) (P20309 whole entry, looked up): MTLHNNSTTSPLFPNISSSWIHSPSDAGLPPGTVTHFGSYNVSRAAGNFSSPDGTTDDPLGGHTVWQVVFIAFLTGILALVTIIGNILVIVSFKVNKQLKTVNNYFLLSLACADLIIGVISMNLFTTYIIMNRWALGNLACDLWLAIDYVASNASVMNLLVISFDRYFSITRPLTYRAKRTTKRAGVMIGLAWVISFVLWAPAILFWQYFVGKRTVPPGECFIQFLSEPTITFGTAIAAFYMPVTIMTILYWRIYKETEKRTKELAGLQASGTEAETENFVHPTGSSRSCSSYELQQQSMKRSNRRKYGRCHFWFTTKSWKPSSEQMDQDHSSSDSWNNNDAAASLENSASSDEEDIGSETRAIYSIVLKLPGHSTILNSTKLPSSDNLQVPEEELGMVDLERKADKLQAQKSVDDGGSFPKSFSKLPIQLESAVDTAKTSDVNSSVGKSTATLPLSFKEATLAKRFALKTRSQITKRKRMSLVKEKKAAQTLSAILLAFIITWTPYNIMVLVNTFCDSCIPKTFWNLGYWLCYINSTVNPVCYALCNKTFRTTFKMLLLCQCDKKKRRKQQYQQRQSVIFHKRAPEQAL
# [7] = biological target: Neuropeptide Y receptor type 1 (Homo sapiens) (UniProt P25929); conditions: Ricerca radioligand binding panel, receptors/transporters; Neuropeptide Y Y1; at 10 µM; stronger effect = higher value
# Sequence of Neuropeptide Y receptor type 1 (Homo sapiens) (P25929 whole entry, looked up): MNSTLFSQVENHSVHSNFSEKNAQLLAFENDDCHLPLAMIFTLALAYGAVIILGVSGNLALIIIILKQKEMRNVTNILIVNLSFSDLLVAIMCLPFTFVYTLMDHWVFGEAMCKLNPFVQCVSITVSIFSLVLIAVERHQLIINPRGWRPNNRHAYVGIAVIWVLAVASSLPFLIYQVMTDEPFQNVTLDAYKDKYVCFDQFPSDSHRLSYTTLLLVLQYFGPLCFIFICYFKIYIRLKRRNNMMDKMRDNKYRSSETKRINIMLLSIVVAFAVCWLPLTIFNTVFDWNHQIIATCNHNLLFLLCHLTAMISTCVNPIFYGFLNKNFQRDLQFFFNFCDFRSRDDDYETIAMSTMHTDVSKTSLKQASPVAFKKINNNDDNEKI
# [8] = biological target: Neuropeptide Y receptor type 2 (Homo sapiens) (UniProt P49146); conditions: Ricerca radioligand binding panel, receptors/transporters; Neuropeptide Y Y2; at 10 µM; stronger effect = higher value
# Sequence of Neuropeptide Y receptor type 2 (Homo sapiens) (P49146 whole entry, looked up): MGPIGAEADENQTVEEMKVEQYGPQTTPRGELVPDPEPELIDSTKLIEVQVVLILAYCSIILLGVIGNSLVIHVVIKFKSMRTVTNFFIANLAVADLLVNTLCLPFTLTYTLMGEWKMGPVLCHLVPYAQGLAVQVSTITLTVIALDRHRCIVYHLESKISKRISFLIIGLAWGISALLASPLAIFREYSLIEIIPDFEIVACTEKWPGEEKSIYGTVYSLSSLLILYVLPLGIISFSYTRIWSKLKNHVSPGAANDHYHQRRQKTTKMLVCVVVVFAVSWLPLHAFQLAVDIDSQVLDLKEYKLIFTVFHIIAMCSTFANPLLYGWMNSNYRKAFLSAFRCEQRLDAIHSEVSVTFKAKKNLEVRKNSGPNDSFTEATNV
# Nicotinic Acetylcholine = conditions: Ricerca radioligand binding panel, receptors/transporters, at 10 µM, stronger effect = higher value
# Opiate (OP3, MOP) = conditions: Ricerca radioligand binding panel, receptors/transporters, at 10 µM, stronger effect = higher value
# Phorbol Ester = conditions: Ricerca radioligand binding panel, receptors/transporters, at 10 µM, stronger effect = higher value
# [9] = biological target: Platelet-activating factor receptor (Homo sapiens) (UniProt P25105); conditions: Ricerca radioligand binding panel, receptors/transporters; Platelet Activating Factor (PAF); at 10 µM; stronger effect = higher value
# Sequence of Platelet-activating factor receptor (Homo sapiens) (P25105 whole entry, looked up): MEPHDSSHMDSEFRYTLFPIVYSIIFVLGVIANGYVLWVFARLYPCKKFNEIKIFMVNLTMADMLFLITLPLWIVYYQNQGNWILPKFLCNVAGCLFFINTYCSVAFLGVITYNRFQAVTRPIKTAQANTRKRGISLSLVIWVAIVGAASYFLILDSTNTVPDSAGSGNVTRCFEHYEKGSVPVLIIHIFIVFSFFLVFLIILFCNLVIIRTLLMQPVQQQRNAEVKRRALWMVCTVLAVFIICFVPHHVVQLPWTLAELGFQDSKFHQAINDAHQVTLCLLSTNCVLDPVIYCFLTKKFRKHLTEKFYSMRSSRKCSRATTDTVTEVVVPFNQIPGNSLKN
# Potassium Channel KATP = conditions: Ricerca radioligand binding panel, receptors/transporters, at 10 µM, stronger effect = higher value
# Prostanoid EP4 = conditions: Ricerca radioligand binding panel, receptors/transporters, at 10 µM, stronger effect = higher value
# Purinergic P2X = conditions: Ricerca radioligand binding panel, receptors/transporters, at 10 µM, stronger effect = higher value
# Purinergic P2Y = conditions: Ricerca radioligand binding panel, receptors/transporters, at 10 µM, stronger effect = higher value
# Rolipram = conditions: Ricerca radioligand binding panel, receptors/transporters, at 10 µM, stronger effect = higher value
# [10] = system: Serotonin (5-Hydroxytryptamine) 5-HT3; conditions: Ricerca radioligand binding panel, receptors/transporters, at 10 µM, stronger effect = higher value
# Sigma1 = conditions: Ricerca radioligand binding panel, receptors/transporters, at 10 µM, stronger effect = higher value
# Tachykinin NK1 = conditions: Ricerca radioligand binding panel, receptors/transporters, at 10 µM, stronger effect = higher value
# Thyroid Hormone = conditions: Ricerca radioligand binding panel, receptors/transporters, at 10 µM, stronger effect = higher value
# [11] = system: Transporter, Dopamine (DAT); conditions: Ricerca radioligand binding panel, receptors/transporters, at 10 µM, stronger effect = higher value
# Transporter, GABA = conditions: Ricerca radioligand binding panel, receptors/transporters, at 10 µM, stronger effect = higher value
# [12] = system: Transporter, Norepinephrine (NET); conditions: Ricerca radioligand binding panel, receptors/transporters, at 10 µM, stronger effect = higher value
# [13] = system: Transporter, Serotonin (5-Hydroxytryptamine); conditions: Ricerca radioligand binding panel, receptors/transporters, at 10 µM, stronger effect = higher value
# [14] = system: Voltage-dependent L-type calcium channel subunit beta-4 (Rattus norvegicus) + Pro-epidermal growth factor (Homo sapiens) + Estrogen receptor (Homo sapiens) + Glucocorticoid receptor (Homo sapiens) + 5-hydroxytryptamine receptor 1A (Homo sapiens) + Alpha-2A adrenergic receptor (Homo sapiens) + Adenosine receptor A3 (Homo sapiens) + Androgen receptor (Homo sapiens) + Muscarinic acetylcholine receptor M1 (Homo sapiens) + D(4) dopamine receptor (Homo sapiens) + Alpha-2A adrenergic receptor (Rattus norvegicus) + Sodium- and chloride-dependent GABA transporter 1 (Rattus norvegicus) + Endothelin receptor type B (Homo sapiens) + Histamine H2 receptor (Homo sapiens) + Endothelin-1 receptor (Homo sapiens) + Neuropeptide Y receptor type 1 (Homo sapiens) + B2 bradykinin receptor (Homo sapiens) + Sodium-dependent serotonin transporter (Homo sapiens) + Histamine H1 receptor (Homo sapiens) + Mu-type opioid receptor (Homo sapiens) + D(3) dopamine receptor (Homo sapiens) + Delta-type opioid receptor (Homo sapiens) + Kappa-type opioid receptor (Homo sapiens) + Glutamate receptor ionotropic, kainate 3 (Rattus norvegicus) + 5-hydroxytryptamine receptor 3A (Homo sapiens) + Melatonin receptor type 1A (Homo sapiens) + Neuropeptide Y receptor type 2 (Homo sapiens) + P2Y purinoceptor 1 (Rattus norvegicus) + Thyroid hormone receptor alpha (Rattus norvegicus) + Glutamate receptor ionotropic, NMDA 2B (Rattus norvegicus) + Sodium-dependent dopamine transporter (Homo sapiens) + Protein kinase C zeta type …; conditions: Ricerca radioligand binding panel, receptors/transporters; at 10 µM; stronger effect = higher value
# [15] = biological target: Voltage-gated inwardly rectifying potassium channel KCNH2 (Homo sapiens) (UniProt Q12809); conditions: Ricerca radioligand binding panel, receptors/transporters; Potassium Channel hERG; at 10 µM; stronger effect = higher value
# Sequence of Voltage-gated inwardly rectifying potassium channel KCNH2 (Homo sapiens) (Q12809 whole entry, looked up): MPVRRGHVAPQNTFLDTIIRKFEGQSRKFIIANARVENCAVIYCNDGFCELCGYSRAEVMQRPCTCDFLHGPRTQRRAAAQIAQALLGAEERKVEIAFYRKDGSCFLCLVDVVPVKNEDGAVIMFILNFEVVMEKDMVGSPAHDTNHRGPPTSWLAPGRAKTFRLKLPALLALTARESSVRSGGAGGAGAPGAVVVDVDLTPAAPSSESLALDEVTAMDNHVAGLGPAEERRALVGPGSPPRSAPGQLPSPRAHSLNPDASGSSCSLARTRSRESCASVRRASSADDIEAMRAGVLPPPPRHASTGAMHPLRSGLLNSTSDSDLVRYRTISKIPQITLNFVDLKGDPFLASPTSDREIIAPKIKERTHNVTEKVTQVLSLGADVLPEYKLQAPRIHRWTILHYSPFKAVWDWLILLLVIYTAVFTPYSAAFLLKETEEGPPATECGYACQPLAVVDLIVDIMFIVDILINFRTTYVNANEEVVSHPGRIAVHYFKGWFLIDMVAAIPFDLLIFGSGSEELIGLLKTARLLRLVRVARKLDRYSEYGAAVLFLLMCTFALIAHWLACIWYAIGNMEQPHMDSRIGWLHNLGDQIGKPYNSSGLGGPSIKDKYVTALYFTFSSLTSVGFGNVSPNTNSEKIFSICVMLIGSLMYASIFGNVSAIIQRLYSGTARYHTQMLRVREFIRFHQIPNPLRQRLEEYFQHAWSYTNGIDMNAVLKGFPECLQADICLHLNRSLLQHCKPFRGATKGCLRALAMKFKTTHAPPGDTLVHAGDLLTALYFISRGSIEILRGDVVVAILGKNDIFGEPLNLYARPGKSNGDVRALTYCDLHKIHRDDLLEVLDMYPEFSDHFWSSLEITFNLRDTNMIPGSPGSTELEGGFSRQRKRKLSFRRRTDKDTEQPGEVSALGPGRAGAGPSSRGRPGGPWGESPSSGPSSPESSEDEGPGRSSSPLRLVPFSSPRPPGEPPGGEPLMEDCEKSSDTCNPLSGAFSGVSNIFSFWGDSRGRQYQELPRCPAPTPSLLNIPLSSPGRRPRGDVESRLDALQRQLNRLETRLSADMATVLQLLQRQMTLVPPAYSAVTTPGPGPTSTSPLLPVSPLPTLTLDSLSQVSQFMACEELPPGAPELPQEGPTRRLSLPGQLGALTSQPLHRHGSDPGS
compound,measurement,setting,value
COc1ccc(CC2CCN(c3ncnc4sccc34)CC2)cc1,inhibition,"Glutamate, NMDA, Glycine",1% (inactive)
same,inhibition,[1],13% (inactive)
same,inhibition,Histamine H1,8% (inactive)
same,inhibition,Histamine H2,-8% (inactive)
same,inhibition,Histamine H3,-2% (inactive)
same,inhibition,"Imidazoline I2, Central",15% (inactive)
same,inhibition,Interleukin IL-1,9% (inactive)
same,inhibition,[2],69%
same,inhibition,[3],-3% (inactive)
same,inhibition,Melatonin MT1,68%
same,inhibition,[4],-5% (inactive)
same,inhibition,[5],4% (inactive)
same,inhibition,[6],11% (inactive)
same,inhibition,[7],2% (inactive)
same,inhibition,[8],11% (inactive)
same,inhibition,Nicotinic Acetylcholine,-26% (inactive)
same,inhibition,"Opiate (OP3, MOP)",55%
same,inhibition,Phorbol Ester,10% (inactive)
same,inhibition,[9],30% (inactive)
same,inhibition,Potassium Channel KATP,18% (inactive)
same,inhibition,Prostanoid EP4,27% (inactive)
same,inhibition,Purinergic P2X,-12% (inactive)
same,inhibition,Purinergic P2Y,-7% (inactive)
same,inhibition,Rolipram,12% (inactive)
same,inhibition,[10],-13% (inactive)
same,inhibition,Sigma1,13% (inactive)
same,inhibition,Tachykinin NK1,6% (inactive)
same,inhibition,Thyroid Hormone,9% (inactive)
same,inhibition,[11],98%
same,inhibition,"Transporter, GABA",1% (inactive)
same,inhibition,[12],80%
same,inhibition,[13],44% (inactive)
same,inhibition,[14],3% (inactive)
same,inhibition,[15],28% (inactive)
